According to ChEMBL document CHEMBL1201862, “PubChem BioAssay data set” (2004):
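Where inhibition never reached the appropriate level, the endpoint shown equals the highest concentration tested. Otherwise, values were interpolated linearly from a five-concentration, 48-hour dose response in 96-well plates. GI50 is the concentration that inhibits growth by half.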 Active and inactive are the calls of the source. No stated cut-off is given here; in the data, active = GI50 up to about 1.1 µM and inactive = higher.

Columns and labels:
Assay in all cases: DTP human tumour cell line panel, 48 h
[1] = system: SNB-78
[2] = system: DLD-1
[3] = system: KM-20L2
[4] = system: XF498
[5] = system: DMS-114
[6] = system: RXF 631
[7] = system: DMS-273
[8] = system: HOP-18
[9] = system: LXFL 529

Row | SMILES | GI50 [1] | GI50 [2] | GI50 [3] | GI50 [4] | GI50 [5] | GI50 [6] | GI50 [7] | GI50 [8] | GI50 [9]
1 | S=C(Nc1ccccc1)Nc1ccccc1SC(/C=C/NNC1=NN=C(c2ccccc2)C(c2ccccc2)N1)c1ccccc1 (stereo not given) | > 100 µM (inactive) | 79.8 µM (inactive) | > 100 µM (inactive) | > 100 µM (inactive) | 12.2 µM (inactive) | > 100 µM (inactive) | > 100 µM (inactive) | – | –
2 | CCc1cc(C)cc2[n+]1CC=C2C.[O-][Cl+3]([O-])([O-])[O-] | > 100 µM (inactive) | > 100 µM (inactive) | > 100 µM (inactive) | – | – | – | 92 µM (inactive) | 1.72 µM (inactive) | 80.5 µM (inactive)
3 | CC(C)Cn1cnc2c(Sc3c([N+](=O)[O-])ncn3C)nc(N)nc21 | > 100 µM (inactive) | – | > 100 µM (inactive) | – | > 100 µM (inactive) | – | > 100 µM (inactive) | – | > 100 µM (inactive)
4 | O=C(CO)C1CC2C=CC1C2 (stereo not given) | > 100 µM (inactive) | – | – | > 100 µM (inactive) | > 100 µM (inactive) | > 100 µM (inactive) | > 100 µM (inactive) | – | > 100 µM (inactive)
5 | Cc1c(C(=O)/C=C/c2ccccc2O)c(=O)n(-c2ccccc2)n1C | 39.4 µM (inactive) | 14.3 µM (inactive) | 31.6 µM (inactive) | 19.1 µM (inactive) | 24.6 µM (inactive) | – | 22.2 µM (inactive) | – | 16.7 µM (inactive)
6 | Cc1nc(C(=O)O)c2ccccc2n1 | > 100 µM (inactive) | > 100 µM (inactive) | > 100 µM (inactive) | – | > 100 µM (inactive) | – | > 100 µM (inactive) | – | > 100 µM (inactive)
7 | COc1c(O)c2c3c(cc(C)cc3c1C(C)C)OC2 | > 100 µM (inactive) | > 100 µM (inactive) | > 100 µM (inactive) | > 100 µM (inactive) | – | – | > 100 µM (inactive) | > 100 µM (inactive) | > 100 µM (inactive)
8 | O=C1[C@H](Cl)[C@H]2c3cc4ccccc4nc3Oc3ccccc3N12 | – | 84.9 µM (inactive) | 43.4 µM (inactive) | – | 20.9 µM (inactive) | – | 33.3 µM (inactive) | – | 34 µM (inactive)
9 | COc1cc2c(cc1OC)[Se]c1cc(OC)c(OC)cc1[Se]2 | > 10 µM (inactive) | > 10 µM (inactive) | > 10 µM (inactive) | > 10 µM (inactive) | 5.61 µM (inactive) | – | 38.1 µM (inactive) | 16.6 µM (inactive) | > 10 µM (inactive)
10 | CCN(CC)/C(=C\Cl)Nc1ccccn1.[O-][Cl+3]([O-])([O-])O | > 100 µM (inactive) | > 100 µM (inactive) | > 100 µM (inactive) | > 100 µM (inactive) | > 100 µM (inactive) | > 100 µM (inactive) | > 100 µM (inactive) | > 100 µM (inactive) | > 100 µM (inactive)
11 | c1ccc2c(c1)OCCOCCOc1ccccc1OCCO2 | > 100 µM (inactive) | 61.9 µM (inactive) | 29.8 µM (inactive) | – | 84.1 µM (inactive) | – | 41.2 µM (inactive) | 34.2 µM (inactive) | 68.5 µM (inactive)
12 | CC1=C(c2cc(C(=O)Nc3ccc(Cl)c(Cl)c3)nc(N)n2)Sc2ccccc2N1 | > 100 µM (inactive) | > 100 µM (inactive) | > 100 µM (inactive) | > 100 µM (inactive) | > 100 µM (inactive) | – | > 100 µM (inactive) | > 100 µM (inactive) | > 100 µM (inactive)
13 | COc1cc2c(c(OC)c1OC)-c1ccc(SC)c(=O)cc1C(CC(=O)Oc1ccc(F)cc1)C2 (stereo not given) | 0.142 µM (active) | 0.288 µM (active) | 0.124 µM (active) | 0.318 µM (active) | 0.26 µM (active) | – | 0.193 µM (active) | 0.53 µM (active) | 0.31 µM (active)
14 | Cc1cc(CS(=O)(=O)/C=C/c2ccccc2[N+](=O)[O-])c(CS(=O)(=O)/C=C/c2ccccc2[N+](=O)[O-])cc1C | 23 µM (inactive) | – | > 100 µM (inactive) | 15.5 µM (inactive) | 45.1 µM (inactive) | – | > 100 µM (inactive) | – | > 100 µM (inactive)
15 | O=C(O)c1c(-c2cccc3ccccc23)sc(-c2cccc3ccccc23)c1C(=O)O | > 100 µM (inactive) | > 100 µM (inactive) | 50 µM (inactive) | 18.2 µM (inactive) | > 100 µM (inactive) | – | > 100 µM (inactive) | 96.2 µM (inactive) | > 100 µM (inactive)
16 | C/C(=N\NC(=O)c1ccccc1O)c1cccc(/C(C)=N/NC(=O)c2ccccc2O)n1 | – | – | – | 18.6 µM (inactive) | 2.66 µM (inactive) | – | – | – | 2.22 µM (inactive)
17 | O=C1C2CCN(CC2)C1CN1CCOCC1 (stereo not given) | 20.7 µM (inactive) | 1.65 µM (inactive) | 18.2 µM (inactive) | 5.05 µM (inactive) | – | 16.9 µM (inactive) | 11.8 µM (inactive) | 7.59 µM (inactive) | 2 µM (inactive)
18 | O=C(CSc1nnc[nH]1)C[P+](c1ccccc1)(c1ccccc1)c1ccccc1 | > 100 µM (inactive) | > 100 µM (inactive) | > 100 µM (inactive) | 85.1 µM (inactive) | 97.1 µM (inactive) | – | > 100 µM (inactive) | – | > 100 µM (inactive)
19 | COC(=O)[C@@]12C(=O)C=CC(=O)C1C1C(=CC2C)OC2OC3(CCCCC3)OC21 (stereo not given in full) | 20.6 µM (inactive) | 18.5 µM (inactive) | 20.5 µM (inactive) | – | 15.7 µM (inactive) | – | 19 µM (inactive) | 20.2 µM (inactive) | 13.5 µM (inactive)
20 | CC1=C(O)C(=O)C2C(=O)C1C1Cc3ccccc3C21 (stereo not given) | > 100 µM (inactive) | > 100 µM (inactive) | – | > 100 µM (inactive) | – | > 100 µM (inactive) | > 100 µM (inactive) | – | > 100 µM (inactive)
21 | O=[N+]([O-])[C@@H]1C2C=CC(C2)[C@H]1Cl (stereo not given in full) | > 100 µM (inactive) | > 100 µM (inactive) | – | > 100 µM (inactive) | > 100 µM (inactive) | > 100 µM (inactive) | > 100 µM (inactive) | > 100 µM (inactive) | > 100 µM (inactive)
22 | CCOC1=C2C(=O)OC(=O)C2C2CCCCC2=C1 (stereo not given) | > 100 µM (inactive) | > 100 µM (inactive) | – | > 100 µM (inactive) | > 100 µM (inactive) | – | > 100 µM (inactive) | – | > 100 µM (inactive)
23 | COc1nc(NC2OCC(OC(C)=O)C(OC(C)=O)C2OC(C)=O)c(-c2csc(N)n2)c(=O)n1C (stereo not given) | > 100 µM (inactive) | > 100 µM (inactive) | > 100 µM (inactive) | – | > 100 µM (inactive) | > 100 µM (inactive) | – | > 100 µM (inactive) | > 100 µM (inactive)
24 | CC1=CC(=O)c2c(C=O)c(O)c(O)c(C(C)C)c2C1=O | 45.9 µM (inactive) | 23.9 µM (inactive) | 29.1 µM (inactive) | 20.6 µM (inactive) | 22.6 µM (inactive) | – | 31 µM (inactive) | 25.9 µM (inactive) | 16.5 µM (inactive)
25 | Cc1cccc(C)c1NC(=O)CCCC(=O)C(C#N)c1ccccc1 (stereo not given) | > 100 µM (inactive) | > 100 µM (inactive) | > 10 µM (inactive) | > 10 µM (inactive) | – | > 100 µM (inactive) | > 10 µM (inactive) | – | > 100 µM (inactive)
